Assay results as given in patent US5210193A, “Piperazine derivatives” (American Cyanamid Company, priority 1990, dated 1993).
Values after ≈ are worked out from the molar mass of the structure shown. Where two headings read alike, the source gives them in different places. Values belong to the compound of their own block, whether it stands above or below them.

Legend:
Experiment in all cases: in vitro antibacterial MIC, agar plate dilution
Type in all cases: cell-based
[1] = system: Staphylococcus aureus ATTC 29213; details: 35° C.
How it was run: (§1)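 Minimal inhibitory concentrations came from agar plate dilution in Mueller-Hinton medium. Each organism was delivered at roughly 10^4 CFU by Steers replicator. Plates were read for visible growth after 18 hours at 35° C, values in mcg/ml.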

[2] = system: Acinetobacter calcoaceticus MOR 84-43; details: 35° C.
How it was run: as §1

[3] = system: Staphylococcus Spp saprophiticus VGH 84-50; details: 18 hours, 35° C.
How it was run: as §1

[4] = system: Pseudomonas aeruginosa VGH 84-4; details: 35° C.
How it was run: as §1

Klebsiella pneumoniae AD = details: 35° C.
How it was run: as §1

[5] = system: Staphylococcus aureus Smith; details: 35° C.
How it was run: as §1

[6] = system: Pseudomonas aeruginosa LL-1244; details: 35° C.
How it was run: as §1

[7] = system: Staphylococcus aureus VGH 84-46; details: 35° C.
How it was run: as §1

[8] = system: Enterobacter aerogenes VGH 84-36; details: 35° C.
How it was run: as §1

[9] = system: Staphylococcus epidermidis CMC 83-135; details: 35° C.
How it was run: as §1

[10] = system: Enterobacter cloacae VGH 84-37; details: 35° C.
How it was run: as §1

[11] = system: Staphylococcus aureus VGH 84-45; details: 35° C.
How it was run: as §1

[12] = system: Enterobacter cloacae K 84-10; details: 35° C.
How it was run: as §1

[13] = system: Streptococcus faecalis ATTC 29212; details: 35° C.
How it was run: as §1

[14] = system: Streptococcus faecalis VGH 84-65; details: 35° C.
How it was run: as §1

Escherichia coli NAR 311 = details: 35° C.
How it was run: as §1

[15] = system: Serratia marcescens K 84-18; details: 35° C.
How it was run: as §1

[16] = system: Staphylococcus epidermidis VGH 84-40; details: 35° C.
How it was run: as §1

[17] = system: Staphylococcus aureus CMC 83-128; details: 35° C.
How it was run: as §1

[18] = system: Staphylococcus aureus CMC 83-127; details: 35° C.
How it was run: as §1

[19] = system: Klebsiella pneumoniae MOR 84-4; details: 35° C.
How it was run: as §1

[20] = system: Escherichia coli CMC 84-16; details: 35° C.
How it was run: as §1

[21] = system: Escherichia coli CMC 84-11; details: 35° C.
How it was run: as §1

[22] = system: Staphylococcus epidermidis IO 83-58; details: 35° C.
How it was run: as §1

[23] = system: Escherichia coli ATCC 25922; details: 35° C.
How it was run: as §1

[24] = system: Escherichia coli PRNT 311; details: 35° C.
How it was run: as §1

[25] = system: Proteus rettgeri CMC 84-41; details: 35° C.
How it was run: as §1

[26] = system: Morganella morganii VGH 84-11; details: 35° C.
How it was run: as §1

[27] = system: Morganella morganii CMC 84-37; details: 35° C.
How it was run: as §1

[28] = system: Serratia marcescens F 0-35; details: 35° C.
How it was run: as §1

[29] = Staphylococcus aureus, ATTC29213, 18 h, read-out: MIC
[30] = MOR8443, 18 hours, read-out: MIC
[31] = Pseudomonas aeruginosa, VGH844, 18 h, read-out: MIC
[32] = Klebsiella pneumoniae, 18 h, read-out: MIC
[33] = Pseudomonas aeruginosa, LL1244, 18 h, read-out: MIC
[34] = Klebsiella aerogenes, VGH8436, 18 hours, read-out: MIC
[35] = CMC83135, 18 hours, read-out: MIC
[36] = Enterobacter cloacae, VGH8437, 18 h, read-out: MIC
[37] = Staphylococcus aureus, VGH8445, 18 h, read-out: MIC
[38] = Enterobacter cloacae, K8410, 18 h, read-out: MIC
[39] = Enterococcus faecalis, ATTC29212, 18 hours, read-out: MIC
[40] = Enterococcus faecalis, VGH8465, 18 h, read-out: MIC
[41] = NAR311, 18 hours, read-out: MIC
[42] = Serratia marcescens, K8418, 18 h, read-out: MIC
[43] = VGH8440, 18 hours, read-out: MIC
[44] = CMC83128, 18 hours, read-out: MIC
[45] = Staphylococcus aureus, CMC83127, 18 h, read-out: MIC
[46] = Klebsiella pneumoniae, MOR844, 18 h, read-out: MIC
[47] = Escherichia coli, CMC8416, 18 h, read-out: MIC
[48] = Escherichia coli, CMC8411, 18 h, read-out: MIC
[49] = IO8358, 18 hours, read-out: MIC
[50] = Escherichia coli, ATCC25922, 18 h, read-out: MIC
[51] = PRNT311, 18 hours, read-out: MIC
[52] = Providencia rettgeri, CMC8441, 18 h, read-out: MIC
[53] = VGH8411, 18 hours, read-out: MIC
[54] = Morganella morganii, CMC8437, 18 h, read-out: MIC
[55] = Serratia marcescens, F035, 18 h, read-out: MIC

- MIC [1, 29]: 0.25 µg/mL (≈ 0.677 µM)
- MIC [2, 30]: 0.5 µg/mL (≈ 1.35 µM)
- MIC ([3]; read-out: MIC): 1 µg/mL (≈ 2.71 µM)
- MIC [4, 31]: 2 µg/mL (≈ 5.42 µM)
- MIC (Klebsiella pneumoniae AD; [32]): 0.06 µg/mL (≈ 0.162 µM)
- MIC ([5]; 18 hours): 0.12 µg/mL (≈ 0.325 µM)
- MIC [6, 33]: 8 µg/mL (≈ 21.7 µM)
- MIC ([7]; 18 hours): 0.12 µg/mL (≈ 0.325 µM)
- MIC [8, 34]: 0.12 µg/mL (≈ 0.325 µM)
- MIC [9, 35]: 0.25 µg/mL (≈ 0.677 µM)
- MIC [10, 36]: 0.06 µg/mL (≈ 0.162 µM)
- MIC [11, 37]: 0.12 µg/mL (≈ 0.325 µM)
- MIC [12, 38]: 0.06 µg/mL (≈ 0.162 µM)
- MIC [13, 39]: 4 µg/mL (≈ 10.8 µM)
- MIC [14, 40]: 4 µg/mL (≈ 10.8 µM)
- MIC (Escherichia coli NAR 311; [41]): 1 µg/mL (≈ 2.71 µM)
- MIC [15, 42]: 0.25 µg/mL (≈ 0.677 µM)
- MIC [16, 43]: 0.25 µg/mL (≈ 0.677 µM)
- MIC [17, 44]: 0.25 µg/mL (≈ 0.677 µM)
- MIC [18, 45]: 0.06 µg/mL (≈ 0.162 µM)
- MIC [19, 46]: 0.06 µg/mL (≈ 0.162 µM)
- MIC [20, 47]: 0.03 µg/mL (≈ 0.0812 µM)
- MIC [21, 48]: 0.03 µg/mL (≈ 0.0812 µM)
- MIC [22, 49]: 0.25 µg/mL (≈ 0.677 µM)
- MIC [23, 50]: 0.03 µg/mL (≈ 0.0812 µM)
- MIC [24, 51]: 0.06 µg/mL (≈ 0.162 µM)
- MIC [25, 52]: 0.25 µg/mL (≈ 0.677 µM)
- MIC [26, 53]: 0.12 µg/mL (≈ 0.325 µM)
- MIC [27, 54]: 0.06 µg/mL (≈ 0.162 µM)
- MIC [28, 55]: 0.5 µg/mL (≈ 1.35 µM)
Structure (SMILES): CCn1cc(C(=O)O)c(=O)c2cc(F)c(N3CCNC(CF)C3)c(F)c21 (single isomer, unassigned; (-)) [Example 64, (-)-N-Ethy6,8-difluoro-7-[3-(fluoromethyl)-1-piperazinyl]-1,4-dihydro-4-oxo-3-quinolinecarboxylic acid]

- MIC [1, 29]: 0.25 µg/mL (≈ 0.677 µM)
- MIC [2, 30]: 0.5 µg/mL (≈ 1.35 µM)
- MIC ([3]; read-out: MIC): 0.06 µg/mL (≈ 0.162 µM)
- MIC [4, 31]: 2 µg/mL (≈ 5.42 µM)
- MIC (Klebsiella pneumoniae AD; [32]): 0.12 µg/mL (≈ 0.325 µM)
- MIC ([5]; Staphylococcus aureus, 18 h, read-out: MIC): 0.25 µg/mL (≈ 0.677 µM)
- MIC [6, 33]: 8 µg/mL (≈ 21.7 µM)
- MIC ([7]; Staphylococcus aureus, VGH8446, 18 h, read-out: MIC): 0.25 µg/mL (≈ 0.677 µM)
- MIC [8, 34]: 0.25 µg/mL (≈ 0.677 µM)
- MIC [9, 35]: 0.5 µg/mL (≈ 1.35 µM)
- MIC [10, 36]: 0.5 µg/mL (≈ 1.35 µM)
- MIC [11, 37]: 0.25 µg/mL (≈ 0.677 µM)
- MIC [12, 38]: 0.12 µg/mL (≈ 0.325 µM)
- MIC [13, 39]: 4 µg/mL (≈ 10.8 µM)
- MIC [14, 40]: 4 µg/mL (≈ 10.8 µM)
- MIC (Escherichia coli NAR 311; [41]): 1 µg/mL (≈ 2.71 µM)
- MIC [15, 42]: 0.06 µg/mL (≈ 0.162 µM)
- MIC [16, 43]: 0.25 µg/mL (≈ 0.677 µM)
- MIC [17, 44]: 0.03 µg/mL (≈ 0.0812 µM)
- MIC [18, 45]: 0.12 µg/mL (≈ 0.325 µM)
- MIC [19, 46]: 0.12 µg/mL (≈ 0.325 µM)
- MIC [20, 47]: 0.06 µg/mL (≈ 0.162 µM)
- MIC [21, 48]: 0.06 µg/mL (≈ 0.162 µM)
- MIC [22, 49]: 0.25 µg/mL (≈ 0.677 µM)
- MIC [23, 50]: 0.06 µg/mL (≈ 0.162 µM)
- MIC [24, 51]: 0.12 µg/mL (≈ 0.325 µM)
- MIC [25, 52]: 0.5 µg/mL (≈ 1.35 µM)
- MIC [26, 53]: 0.5 µg/mL (≈ 1.35 µM)
- MIC [27, 54]: 0.12 µg/mL (≈ 0.325 µM)
- MIC [28, 55]: 0.5 µg/mL (≈ 1.35 µM)
Structure (SMILES): CCn1cc(C(=O)O)c(=O)c2cc(F)c(N3CCNC(CF)C3)c(F)c21 (racemic) [Example 63, (racemic)-N-Ethyl-6,8-difluoro-7-[3-(fluoromethyl)-1-piperazinyl]-1,4-dihydro-4-oxo-3-quinolinecarboxylic acid]

- MIC ([1]; 18 hours): 0.25 µg/mL (≈ 0.677 µM)
- MIC ([2]; 18 hours): 0.5 µg/mL (≈ 1.35 µM)
- MIC [3]: 1 µg/mL (≈ 2.71 µM)
- MIC ([4]; 18 hours): 1 µg/mL (≈ 2.71 µM)
- MIC (Klebsiella pneumoniae AD; 18 hours): 0.12 µg/mL (≈ 0.325 µM)
- MIC ([5]; 18 hours): 0.25 µg/mL (≈ 0.677 µM)
- MIC ([6]; 18 hours): 8 µg/mL (≈ 21.7 µM)
- MIC ([7]; 18 hours): 0.25 µg/mL (≈ 0.677 µM)
- MIC ([8]; 18 hours): 0.12 µg/mL (≈ 0.325 µM)
- MIC ([9]; 18 hours): 0.25 µg/mL (≈ 0.677 µM)
- MIC ([10]; 18 hours): 0.12 µg/mL (≈ 0.325 µM)
- MIC ([11]; 18 hours): 0.12 µg/mL (≈ 0.325 µM)
- MIC ([12]; 18 hours): 0.06 µg/mL (≈ 0.162 µM)
- MIC ([13]; 18 hours): 4 µg/mL (≈ 10.8 µM)
- MIC ([14]; 18 hours): 4 µg/mL (≈ 10.8 µM)
- MIC (Escherichia coli NAR 311; 18 hours): 1 µg/mL (≈ 2.71 µM)
- MIC ([15]; 18 hours): 0.25 µg/mL (≈ 0.677 µM)
- MIC ([16]; 18 hours): 0.25 µg/mL (≈ 0.677 µM)
- MIC ([17]; 18 hours): 0.25 µg/mL (≈ 0.677 µM)
- MIC ([18]; 18 hours): 0.12 µg/mL (≈ 0.325 µM)
- MIC ([19]; 18 hours): 0.12 µg/mL (≈ 0.325 µM)
- MIC ([20]; 18 hours): 0.06 µg/mL (≈ 0.162 µM)
- MIC ([21]; 18 hours): 0.06 µg/mL (≈ 0.162 µM)
- MIC ([22]; 18 hours): 0.25 µg/mL (≈ 0.677 µM)
- MIC ([23]; 18 hours): 0.06 µg/mL (≈ 0.162 µM)
- MIC ([24]; 18 hours): 0.06 µg/mL (≈ 0.162 µM)
- MIC ([25]; 18 hours): 0.25 µg/mL (≈ 0.677 µM)
- MIC ([26]; 18 hours): 0.12 µg/mL (≈ 0.325 µM)
- MIC ([27]; 18 hours): 0.12 µg/mL (≈ 0.325 µM)
- MIC ([28]; 18 hours): 0.25 µg/mL (≈ 0.677 µM)
Structure (SMILES): CCn1cc(C(=O)O)c(=O)c2cc(F)c(N3CCNC(CF)C3)c(F)c21 (single isomer, unassigned; (+)) [Example 65, (+)-N-Ethyl-6,8-difluoro-7-[3-(fluoromethyl)-1-piperazinyl]-1,4-dihydro-4-oxo-3-quinolinecarboxylic acid]
